Experimental data from patent publication US20240026300A1, “KIDNEY EXTRACELLULAR MATRIX-DERIVED SCAFFOLD FOR CULTURE AND TRANSPLANTATION OF KIDNEY ORGANOID AND METHOD OF PREPARING THE SAME” (CELLARTGEN INC., priority 2020, published 2024).

System: mouse kidney organoid
Test: Kidney fibrosis model by TGF-β treatment of kidney organoid
Type: cell-based
Method: A kidney fibrosis model was constructed using a kidney organoid cultured in the KEM hydrogel. To this end, kidney fibrosis was induced by treatment of a mouse kidney organoid with TGF-b. On day 9 of kidney organoid culture (subculture once on day 7 and additional culture for 2 days), the kidney organoids were treated with each concentration of TGF-β for 3 days and then analyzed on day 12. A kidney organoid not treated with TGF-β (NT, No treatment) was compared as a control group.

TGF-β
Acta2 and Colla1 (fibrosis markers) mRNA expression levels, qPCR (TGF-β for 3 days, analyzed day 12): increased in proportion to the increase in treatment concentration | kidney organoid morphology and growth (each concentration of TGF-β for 3 days, analyzed day 12): exhibited morphological changes and did not grow well | hydrogel and organoid appearance after TGF-β (organoid cultured in 7 mg/ml KEM hydrogel): the KEM hydrogel contracted and fibrosis-induced organoids agglomerated in a mass | Vimentin, COL1, α-SMA (fibrosis markers) expression, immunostaining (organoids in Matrigel and KEM scaffolds): expression of all fibrosis markers was increased
